This test deals with HUVEC and M1 macrophages+Zymosan (TLR2 ligand). As to the kind of experiment: BioMAP IMphg system. Conditions: CD14+ derived macrophages; PF-06650833 19-500 nM. The format is cell-based, human. From the text:
The BioMAP systems consist of human primary cell-based systems designed to model different aspects of the human body in an in vitro format. The 12 systems tested characterized the test compounds across a broad set of systems modeling various human disease states. BioMAP systems were constructed with one or more primary cell types from healthy human donors, with stimuli (such as cytokines or growth factors) added to capture relevant signaling networks that naturally occur in human tissue or pathological conditions. […] Soluble factors from supernatants were quantified using either HTRF® detection, bead-based multiplex immunoassay or capture ELISA. Overt adverse effects of test agents on cell proliferation and viability (cytotoxicity) were detected by sulforhodamine B (SRB) staining, for adherent cells, and alamarBlue® reduction for cells in suspension. […] Each tested compound generated a signature BioMAP profile that was created from the changes in protein biomarker readouts within individual system environments. […] Each readout was measured quantitatively by immune-based methods that detected protein (e.g., ELISA) or functional assays that measured proliferation and viability. BioMAP readouts were diverse and included cell surface receptors, cytokines, chemokines, matrix molecules and enzymes. […]

In the case of `CC[C@@H]1[C@H](F)C(=O)N[C@@H]1COc1nccc2cc(C(N)=O)c(OC)cc12` [PF-06650833, 1-(((2S,3S,4S)-3-Ethyl-4-fluoro-5-oxopyrrolidin-2-yl)methoxy)-7-methoxyisoquinoline-6-carboxamide], the “Activity in the IMphg system” value is on record as “no activity was found”.

These data come from patent US20220378707A1, “1-(((2S,3S,4S)-3-ETHYL-4-FLUORO-5-OXOPYRROLIDIN-2-YL)METHOXY)-7-METHOXYISOQUINOLINE-6-CARBOXAMIDE COMBINATIONS AND ORAL DOSAGE FORMS” (Pfizer Inc., priority 2019, published 2022).
